# Values joined by “and” are separate entries in the source; they are usually repeats but may differ in a detail not shown here. Equal values may be shown once.
# What was measured:
# [1] = tested on: Mouse malignant melanoma B16-F0; test: B16 melanoma hematogenous lung metastasis model; format: in vivo; conditions: for invasion of lymphocytes into metastatic lesions observed in cases: animals with metastatic lesions; for Metastatic nodules, Abdominal cavity Adipose tissue / Metastatic nodules, Abdominal cavity Adrenal gland / Metastatic nodules, Abdominal cavity Diaphragm / Metastatic nodules, Abdominal cavity Kidney / Metastatic nodules, Abdominal cavity Ovary / Metastatic nodules, Abdominal cavity Spleen / Metastatic nodules, Thoracic cavity / Metastatic nodules, Tissue around glandual clitoris: autopsy day 14, individual animals; for Number of lung tumor nodules, Range (mininum-maximum) / Number of mice having lung tumor nodules: day 14, N 6; for Number of lung tumor nodules: day 14, mean ± S.D.; for Number of lung tumor nodules / Number of mice having metastatic lesions: N 6; for Number of mice having metastatic lesions / Findings: Invasion of lymphocytes into melanoma metastatic lesion: lung histopathology; for Findings: Invasion of lymphocytes into melanoma metastatic lesion: individual animals; for Number of metastatic lesions per section, Large size: major diameter 0.65 mm ≦ and <1.3 mm; for Number of metastatic lesions per section, Large size / Number of metastatic lesions per section, Small size / Number of metastatic lesions per section, Total: mean ± S.D.; for Number of metastatic lesions per section, Small size: major diameter <0.65 mm, left lobe and posterior lobe; for Metastatic nodules, Abdominal cavity Adipose tissue: key: −: Absent; +: Present; for Metastatic nodules, Abdominal cavity Adrenal gland: key: −: Absent; +: Present; for Metastatic nodules, Abdominal cavity Diaphragm: key: −: Absent; +: Present; for Metastatic nodules, Abdominal cavity Kidney: key: −: Absent; +: Present; for Metastatic nodules, Abdominal cavity Ovary: key: −: Absent; +: Present; for Metastatic nodules, Abdominal cavity Spleen: key: −: Absent; +: Present; for Metastatic nodules, Thoracic cavity: key: −: Absent; +: Present; for Metastatic nodules, Tissue around glandual clitoris: key: −: Absent; +: Present
# Description: cPA-19 and cPA-20 were used as test substances. 0.1 w/v % BSA/PBS which was prepared by dissolving Albumin, Bovine [essentially Fatty Acid Free] (BSA, Lot No. 89H7604, Sigma chemical company) in Ca^2+ and Mg^2+ free PBS (pH 7.2), was used as a medium After preparation, the solution was sterilized by filtration using a filter (0.22 μm, Millipore). Preparation was performed when used. cPA-5 was used as a positive control substance.
# A medium was added in a volume required for a test substance or a positive control substance. Dissolution was performed by ultrasonication, thereby preparing a 0.16 mg/mL solution. The 0.16 mg/mL solution containing a test substance was diluted with a medium, thereby preparing 0.08 and 0.02 mg/mL solutions. All mixtures were prepared when used.
# Mice were purchased from CHARLES RIVER JAPAN. INC. The line employed herein was C57BL/6NCrj (sexuality: female). The number of animals kept in stock was 60, and the age of these animals when kept in stock was 4 weeks. […] The environmental conditions for the test system were as follows:
# Mouse malignant melanoma B16-F0 was used as a tumor cell. The cell was purchased from Dainippon Pharmaceutical Co., Ltd.
# Dulbecco's Modified Eagle's Media containing 10% feral bovine serum and kanamycin were used for culture. […] A medium was added to stop the action of trypsin while pipetting, thereby preparing a cell suspension. The suspension was diluted by one-tenth with a medium for culturing, followed by subculturing until it reached a volume sufficient for grafting.
# A cell suspension was prepared by the same technique as the subculture method. Specifically, the cells were washed with a Ca^2+ and Mg^2+ free phosphate buffer [PBS(−)], and then harvested. The harvested cells were suspended in a 10 mL of PBS(−), thereby preparing a cell suspension. The number of cells in the cell suspension was measured to obtain the total cell number. 50 μL of the cell suspension, 100 μL of 0.4% trypan blue liquid and 100 μL of PBS(−) were mixed, and then viable count was measured. The survival rate of the cells was calculated from the viable count and total cell number.
# Based on the body weight on the day of the administration of the test substance, mice were grouped into 8 test groups according to the stratified continuous randomization method as shown in Table 2 below.
# The mixture was administered via the caudal vein. The number of grafted cells was 5×10^5 cells/body. The dose of the test substance was 0.001, 0.004 or 0.008 mg/body, and the dose of the positive control substance was 0.008 mg/body.
# On day 14 after the administration of the test substance, blood was collected from the posterior portion of the abdominal vena cava under isoflurane anesthesia. After the mice were sacrificed by blood-letting, the presence or absence of intrapleural and intraperitoneal metastatic nodules was confirmed. Lungs were extracted, and then fixed with a 10% neutral buffered formalin solution. The number of nodules resulting from lung metastasis was measured under a stereoscopic microscope (magnification: 10 times).
# After the measurement of the number of nodules resulting from lung metastasis, samples were paraffin-embedded, and then thin sections were prepared. Hematoxylin eosinic-stained samples were prepared from these sections. The number of metastatic lesions in the certain portions of the left lobe and the posterior lobe was measured, and then the lesions were sorted by size. On the basis of the diameter (0.65 mm) of an object lens (×40), metastatic lesions with major diameters of less than 0.65 mm were classified as having a small size, and those with major diameters of between 0.65 mm or more and less than 1.30 mm were classified as having a large size. Furthermore, the degree of invasion of lymphocytes into metastatic lesions was confirmed qualitatively.
# The representative value of each test group was denoted as mean±standard deviation (mean±S.D.). Differences in mean values were examined as follows.
# MM1 cells = test: Effect on the proliferation of MM1 cells; format: cell-based, rat; conditions: 12.5 μM or 25 μM cPA, 10% FBS, 24 hours and 72 hours
# Description: 12.5 μM and 25 μM cPA were added to media containing 10% FBS, and then the cells were cultured under conditions of 37° C. and 5% CO2 for 24 hours and 72 hours. The number of the MM1 cells was counted using a hemocytometer.
# [2] = 0.001 mg/body i.v., autopsy, 6 mice
# [3] = 0.004 mg/body i.v., autopsy, 6 mice
# [4] = 0.008 mg/body i.v., autopsy, 6 mice
substance,measurement,setting,value
carba-ΔPal-cPA [cPA-20],invasion of lymphocytes into metastatic lesions observed in cases,[1]; 0.001 mg/body i.v.,1 out of 4
same,"Metastatic nodules, Abdominal cavity Adipose tissue",[1]; 0.001 mg/body i.v.,−
same,"Metastatic nodules, Abdominal cavity Adrenal gland",[1]; 0.001 mg/body i.v.,−
same,"Metastatic nodules, Abdominal cavity Diaphragm",[1]; 0.001 mg/body i.v.,− (5×) and +
same,"Metastatic nodules, Abdominal cavity Kidney",[1]; 0.001 mg/body i.v.,−
same,"Metastatic nodules, Abdominal cavity Ovary",[1]; 0.001 mg/body i.v.,− (5×) and +
same,"Metastatic nodules, Abdominal cavity Spleen",[1]; 0.001 mg/body i.v.,− (5×) and +
same,"Metastatic nodules, Thoracic cavity",[1]; 0.001 mg/body i.v.,− (5×) and +
same,"Metastatic nodules, Tissue around glandual clitoris",[1]; 0.001 mg/body i.v.,− (5×) and +
same,cases with metastatic nodules in the diaphragm,[1]; [2],1 case
same,cases with metastatic nodules in the ovary,[1]; [2],1 cases
same,cases with metastatic nodules in the spleen,[1]; [2],1 case
same,cases with metastatic nodules in the thoracic cavity,[1]; [2],1 case
same,cases with metastatic nodules in tissue around the glandual clitoris,[1]; [2],1 case
same,"Number of lung tumor nodules, Range (mininum-maximum)",[1]; 0.001 mg/body i.v.,17-112
same,Number of mice having lung tumor nodules,[1]; 0.001 mg/body i.v.,6
same,Number of lung tumor nodules,[1]; 0.001 mg/body i.v.,58 ± 40
same,Number of mice having metastatic lesions,[1]; 0.001 mg/body i.v.,4
same,Findings: Invasion of lymphocytes into melanoma metastatic lesion,[1]; 0.001 mg/body i.v.,− (3×) and ++
same,"Number of metastatic lesions per section, Large size",[1]; 0.001 mg/body i.v.,1.2 ± 1.3
same,"Number of metastatic lesions per section, Small size",[1]; 0.001 mg/body i.v.,3.2 ± 3.5
same,"Number of metastatic lesions per section, Total",[1]; 0.001 mg/body i.v.,4.3 ± 4.6
same,number of metastatic nodules of B16-F0 in the lungs versus medium group (in words),[1]; 0.004 mg/body i.v.,significant decrease in the number of metastatic nodules
same,invasion of lymphocytes into metastatic lesions observed in cases,[1]; 0.004 mg/body i.v.,no invasions were observed in 1 case
same,"Metastatic nodules, Abdominal cavity Adipose tissue",[1]; 0.004 mg/body i.v.,−
same,"Metastatic nodules, Abdominal cavity Adrenal gland",[1]; 0.004 mg/body i.v.,−
same,"Metastatic nodules, Abdominal cavity Diaphragm",[1]; 0.004 mg/body i.v.,−
same,"Metastatic nodules, Abdominal cavity Kidney",[1]; 0.004 mg/body i.v.,−
same,"Metastatic nodules, Abdominal cavity Ovary",[1]; 0.004 mg/body i.v.,−
same,"Metastatic nodules, Abdominal cavity Spleen",[1]; 0.004 mg/body i.v.,− (5×) and +
same,"Metastatic nodules, Thoracic cavity",[1]; 0.004 mg/body i.v.,−
same,"Metastatic nodules, Tissue around glandual clitoris",[1]; 0.004 mg/body i.v.,−
same,cases with metastatic nodules in the spleen,[1]; [3],1 case
same,metastatic nodules in the thoracic cavity,[1]; [3],no metastatic nodules were observed
same,"Number of lung tumor nodules, Range (mininum-maximum)",[1]; 0.004 mg/body i.v.,0-4
same,Number of mice having lung tumor nodules,[1]; 0.004 mg/body i.v.,2 &
same,Number of lung tumor nodules,[1]; 0.004 mg/body i.v.,1 ± 2
same,Number of mice having metastatic lesions,[1]; 0.004 mg/body i.v.,1 &&
same,Findings: Invasion of lymphocytes into melanoma metastatic lesion,[1]; 0.004 mg/body i.v.,−
same,"Number of metastatic lesions per section, Large size",[1]; 0.004 mg/body i.v.,0 ± 0!!
same,"Number of metastatic lesions per section, Small size",[1]; 0.004 mg/body i.v.,0.2 ± 0.4
same,"Number of metastatic lesions per section, Total",[1]; 0.004 mg/body i.v.,0.2 ± 0.4!!
same,metastasis / number of metastatic nodules in the lungs versus medium group (in words),[1]; 0.008 mg/body i.v.,almost completely suppressed metastasis
same,"Metastatic nodules, Abdominal cavity Adipose tissue",[1]; 0.008 mg/body i.v.,−
same,"Metastatic nodules, Abdominal cavity Adrenal gland",[1]; 0.008 mg/body i.v.,−
same,"Metastatic nodules, Abdominal cavity Diaphragm",[1]; 0.008 mg/body i.v.,−
same,"Metastatic nodules, Abdominal cavity Kidney",[1]; 0.008 mg/body i.v.,−
same,"Metastatic nodules, Abdominal cavity Ovary",[1]; 0.008 mg/body i.v.,−
same,"Metastatic nodules, Abdominal cavity Spleen",[1]; 0.008 mg/body i.v.,− (5×) and +
same,"Metastatic nodules, Thoracic cavity",[1]; 0.008 mg/body i.v.,−
same,"Metastatic nodules, Tissue around glandual clitoris",[1]; 0.008 mg/body i.v.,−
same,cases with metastatic nodules in the spleen,[1]; [4],1 case
same,metastatic nodules in the thoracic cavity,[1]; [4],no metastatic nodules were observed
same,"Number of lung tumor nodules, Range (mininum-maximum)",[1]; 0.008 mg/body i.v.,0-1
same,Number of mice having lung tumor nodules,[1]; 0.008 mg/body i.v.,1 &&
same,Number of lung tumor nodules,[1]; 0.008 mg/body i.v.,0 ± 0
same,Number of mice having metastatic lesions,[1]; 0.008 mg/body i.v.,0 &&
same,"Number of metastatic lesions per section, Large size",[1]; 0.008 mg/body i.v.,0 ± 0!!
same,"Number of metastatic lesions per section, Small size",[1]; 0.008 mg/body i.v.,0 ± 0!
same,"Number of metastatic lesions per section, Total",[1]; 0.008 mg/body i.v.,0 ± 0!!
same,"number of mice having intrapleural or intraperitoneal metastatic nodules, dose dependence (in words)","[1]; 0.001, 0.004 and 0.008 mg/body i.v.",decreased as the dose increased
same,action of suppressing the lung metastasis of B16-F0 compared with cPA-5,[1]; 0.004 and 0.008 mg/body i.v.,stronger than that of cPA-5
same,effect on MM1 cell proliferation (in words),MM1 cells,showed proliferation suppressing activity

# Source: patent US20040214799A1, “Cancerous metastasis inhibitors containing carbacyclic phosphatidic acid derivatives” (priority 2001, published 2004)
